Measurements taken from US9050345B2, “Pyrrolotriazines as potassium ion channel inhibitors” (BRISTOL-MYERS SQUIBB COMPANY, priority 2013, dated 2015).

The compounds below were run against T1, human KV 1.5 (IKur) (Homo sapiens, UniProt P22460) (assay: block of IKur current in patch clamped L-929 cells expressing human Kv1.5). Conditions: L929, 0.3 μM; patch clamped mammalian L-929 cells stably expressing human Kv1.5; read-out: KV1_5% Inh L929 @0.3 μM.
T1 construct: expressed in transfected cells
Format: cell-based
Text: Assays to determine the degree of activity of a compound as an IKur inhibitor are well known in the art and are described in references such as J. Gen. Physiol., 101(4):513-543 (April 1993), and Br. J. Pharmacol., 115(2):267-274 (May 1995).
Synders, D. J. et al., “A rapidly activating and slowly inactivating potassium channel cloned from human heart: functional analysis after stable mammalian cell culture expression”, J. Gen. Physiol., 101:513-543 (1993). • 2. Zhou, Z. et al., “Block of HERG potassium channels by the antihistamine astemizole and its metabolites desmethylastemizole and norastemizole”, J. Cardiovasc. Electrophysiol., 10(6):836-843 (1999).

T1 sequence (P22460 whole entry): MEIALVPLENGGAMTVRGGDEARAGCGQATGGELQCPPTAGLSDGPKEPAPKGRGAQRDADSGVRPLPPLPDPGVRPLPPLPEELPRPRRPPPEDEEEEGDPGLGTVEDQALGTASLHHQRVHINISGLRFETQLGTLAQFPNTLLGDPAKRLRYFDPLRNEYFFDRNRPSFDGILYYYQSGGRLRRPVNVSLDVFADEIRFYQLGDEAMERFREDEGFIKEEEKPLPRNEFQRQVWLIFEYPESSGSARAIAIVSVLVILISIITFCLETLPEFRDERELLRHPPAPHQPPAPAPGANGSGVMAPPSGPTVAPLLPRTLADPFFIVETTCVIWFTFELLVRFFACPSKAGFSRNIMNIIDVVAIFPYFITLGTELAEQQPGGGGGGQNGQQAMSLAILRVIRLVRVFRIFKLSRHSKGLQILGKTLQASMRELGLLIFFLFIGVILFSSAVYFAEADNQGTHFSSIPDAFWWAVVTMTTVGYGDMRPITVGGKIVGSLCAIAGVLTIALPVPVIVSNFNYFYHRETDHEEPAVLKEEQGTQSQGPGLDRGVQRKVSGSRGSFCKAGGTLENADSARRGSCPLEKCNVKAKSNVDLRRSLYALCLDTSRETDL

| inhibition at 0.3 µM | SMILES |
| --- | --- |
| 96.1% | NC(=O)CC(=O)Nc1cncc(-c2nc(NCc3ccccn3)c3c(-c4ccccc4)ccn3n2)c1 [Example 52, N1-(5-(5-phenyl-4-(pyridin-2-ylmethylamino)pyrrolo[1,2-f][1,2,4]triazin-2-yl)pyridin-3-yl)malonamide] |
| 93.6% | NS(=O)(=O)c1cncc(-c2nc(NCC3CCCCO3)c3c(-c4ccccc4)ccn3n2)c1 (stereo not shown) [Example 101, 5-(5-phenyl-4-((tetrahydro-2H-pyran-2-yl)methylamino)pyrrolo [1,2-f][1,2,4]triazin-2-yl)pyridine-3-sulfonamide] |
| 97.8% | NS(=O)(=O)Nc1cccc(-c2nc(NCc3ccccn3)c3c(-c4ccccc4)ccn3n2)c1 [Example 50] |
| 95.1% | CC(C)Oc1ncc(-c2nc(NCc3ccccn3)c3c(-c4ccccc4)ccn3n2)cc1S(N)(=O)=O [Example 41, 2-Isopropoxy-5-(5-phenyl-4-((pyridin-2-ylmethyl)amino)pyrrolo[2,1-f][1,2,4]triazin-2-yl)pyridine-3-sulfonamide] |
| 98.5% | NS(=O)(=O)c1cncc(-c2nc(NCc3ccccn3)c3c(-c4ccccc4C(F)(F)F)ccn3n2)c1 [Example 135, 5-(4-((pyridin-2-ylmethyl)amino)-5-(2-(trifluoromethyl)phenyl)pyrrolo[2,1-f][1,2,4]triazin-2-yl)pyridine-3-sulfonamide] |
| 99.4% | CC(=O)Nc1cncc(-c2nc(NCc3ccccn3)c3c(-c4ccccc4)ccn3n2)n1 [Example 42, N-(6-(5-Phenyl-4-(pyridin-2-ylmethylamino)pyrrolo[1,2-f][1,2,4]triazin-2-yl)pyrazin-2-yl)acetamide] |
| 96.7% | CCOC(=O)CC(=O)Nc1cncc(-c2nc(NCc3cnccn3)c3c(-c4ccccc4)ccn3n2)c1 [Example 177, ethyl 3-oxo-3-((5-(5-phenyl-4-((pyrazin-2-ylmethyl)amino)pyrrolo [2,1-f][1,2,4]triazin-2-yl)pyridin-3-yl)amino) propanoate] |
| 96.6% | CC(=O)Nc1cccc(-c2nc(NCc3ccccn3)c3c(-c4ccccc4)ccn3n2)c1 [Example 48, N-(3-(5-phenyl-4-(pyridin-2-ylmethylamino)pyrrolo[1,2-f][1,2,4]triazin-2-yl)phenyl) acetamide] |
| 97.2% | NS(=O)(=O)c1cncc(-c2nc(NCc3cocn3)c3c(-c4ccccc4)ccn3n2)c1 [Example 142, 5-(4-((oxazol-4-ylmethyl)amino)-5-phenylpyrrolo [2,1-f][1,2,4]triazin-2-yl)pyridine-3-sulfonamide] |
| 98.8% | NC(=O)[C@@H]1C[C@H]1c1nc(NCc2ccccn2)c2c(-c3ccccc3)ccn2n1 (racemic) [Example 44, (±)-2-(5-Phenyl-4-(pyridin-2-ylmethylamino)pyrrolo[1,2-f][1,2,4]triazin-2-yl)cyclopropanecarboxamide] |
| 98.5% | NS(=O)(=O)c1cncc(-c2nc(NCc3cnccn3)c3c(-c4ccccc4F)ccn3n2)c1 [Example 156, 5-(5-(2-fluorophenyl)-4-((pyrazin-2-ylmethyl)amino)pyrrolo [2,1-f][1,2,4]triazin-2-yl)pyridine-3-sulfonamide] |
| 96% | NS(=O)(=O)c1cncc(-c2nc(NCc3c(F)cccc3F)c3c(-c4ccccc4)ccn3n2)c1 [Example 79, 5-(4-(2,6-difluorobenzylamino)-5-phenylpyrrolo [1,2-f][1,2,4]triazin-2-yl)pyridine-3-sulfonamide] |
| 97.3% | COc1ncc(-c2nc(NCc3ccccn3)c3c(-c4ccccc4)ccn3n2)cc1S(N)(=O)=O [Example 147, 2-methoxy-5-(5-phenyl-4-(pyridin-2-ylmethylamino)pyrrolo[1,2-f][1,2,4]triazin-2-yl)pyridine-3-sulfonamide] |
| 16% | NS(=O)(=O)c1cncc(-c2nc(NCc3ccccn3)c3c(-c4ccc(N5CCOCC5)cc4)ccn3n2)c1 [Example 106, 5-(5-(4-morpholinophenyl)-4-(pyridin-2-ylmethylamino)pyrrolo[1,2-f][1,2,4]triazin-2-yl)pyridine-3-sulfonamide] |
| 97.3% | NC(=O)CC(=O)Nc1cncc(-c2nc(NCc3ccccc3)c3c(-c4ccccc4)ccn3n2)c1 [Example 4, N1-(5-(4-(Benzylamino)-5-phenylpyrrolo[1,2-f][1,2,4]triazin-2-yl)pyridin-3-yl)malonamide] |
| 28.1% | Nc1cncc(-c2nc(NCc3ccccn3)c3c(-c4cncc(N)c4)ccn3n2)c1 [Example 68, 5,5′-(4-(pyridin-2-ylmethylamino)pyrrolo [1,2-f][1,2,4]triazine-2-,5-diyl)dipyridin-3-amine] |
| 97.5% | NS(=O)(=O)c1cccc(-c2nc(NCc3ccccn3)c3c(-c4ccccc4)ccn3n2)c1 [Example 150, 3-(5-phenyl-4-(pyridin-2-ylmethylamino)pyrrolo [1,2-f][1,2,4]triazin-2-yl)benzenesulfonamide] |

| inhibition at 0.3 µM | SMILES |
| --- | --- |
| 93.8% | O=S(=O)(Nc1cncc(-c2nc(NCc3ccccn3)c3c(-c4ccccc4)ccn3n2)c1)C1CC1 [Example 56, N-(5-(5-phenyl-4-(pyridin-2-ylmethylamino)pyrrolo[1,2-f][1,2,4]triazin-2-yl)pyridin-3-yl) cyclopropanesulfonamide] |
| 96.6% | OCc1cncc(-c2nc(NCc3ccccc3)c3c(-c4ccccc4)ccn3n2)c1 [Example 20, (5-(4-(Benzylamino)-5-phenylpyrrolo[1,2-f][1,2,4]triazin-2-yl)pyridin-3-yl)methanol] |
| 93.8% | NS(=O)(=O)c1cncc(-c2nc(NCc3ccccc3)c3c(C4=CCOCC4)ccn3n2)c1 [Example 129, 5-(4-(benzylamino)-5-(3,6-dihydro-2H-pyran-4-yl)pyrrolo[2,1-f][1,2,4]triazin-2-yl)pyridine-3-sulfonamide] |
| 72% | NS(=O)(=O)c1cncc(-c2nc(NCc3cccnn3)c3c(-c4ccccc4)ccn3n2)c1 [Example 108, 5-(5-phenyl-4-(pyridazin-3-ylmethylamino)pyrrolo [1,2-f][1,2,4]triazin-2-yl)pyridine-3-sulfonamide] |
| 95.4% | c1ccc(CNc2nc(C3CCOCC3)nn3ccc(-c4ccccc4)c23)cc1 [Example 128, N-benzyl-5-phenyl-2-(tetrahydro-2H-pyran-4-yl)pyrrolo[1,2-f][1,2,4] triazin-4-amine] |
| 94.5% | Oc1cc(-c2nc(NCc3ccccn3)c3c(-c4ccccc4)ccn3n2)ccn1 [Example 157, 4-(5-phenyl-4-((pyridin-2-ylmethyl)amino)pyrrolo [2,1-f][1,2,4]triazin-2-yl)pyridin-2-ol] |
| 75.8% | O=C(Nc1ccc(CCO)cc1)c1nc(NCc2ccccc2)c2c(-c3ccccc3)ccn2n1 [Example 122, 4-(benzylamino)-N-(4-(2-hydroxyethyl)phenyl)-5-phenylpyrrolo [1,2-f][1,2,4] triazine-2-carboxamide] |
| 86.3% | COC(=O)c1cccc(-c2nc(NCc3ccccn3)c3c(-c4ccccc4)ccn3n2)c1 [Example 86, methyl 3-(5-phenyl-4-(pyridin-2-ylmethylamino)pyrrolo[1,2-f][1,2,4]triazin-2-yl)benzoate] |
| 72.2% | O=C(c1cncc(-c2nc(NCc3ccccc3)c3c(-c4ccccc4)ccn3n2)c1)N(CCO)CCO [Example 103, 5-(4-(benzylamino)-5-phenylpyrrolo[1,2-f] [1,2,4]triazin-2-yl)-N, N-bis(2-hydroxyethyl) nicotinamide] |
| 84.8% | NS(=O)(=O)c1cncc(-c2nc(NCc3ccccn3)c3c(-c4cccnc4)ccn3n2)c1 [Example 148, 5-(4-(pyridin-2-ylmethylamino)-5-(pyridin-3-yl)pyrrolo [1,2-f][1,2,4]triazin-2-yl)pyridine-3-sulfonamide] |
| 93.8% | NS(=O)(=O)c1cncc(-c2nc(N3Cc4ccccc4C3)c3c(-c4ccccc4)ccn3n2)c1 [Example 143, 5-(4-(isoindolin-2-yl)-5-phenylpyrrolo [2,1-f][1,2,4]triazin-2-yl)pyridine-3-sulfonamide] |
| 94.2% | Oc1ccc(-c2nc(NCc3ccccn3)c3c(-c4ccccc4)ccn3n2)cn1 [Example 151, 5-(5-phenyl-4-((pyridin-2-ylmethyl)amino)pyrrolo [2,1-f][1,2,4]triazin-2-yl)pyridin-2-ol] |
| 97% | CCOC(=O)CCNC(=O)c1cncc(-c2nc(NCc3ccccc3)c3c(-c4ccccc4)ccn3n2)c1 [Example 89, ethyl 3-(5-(4-(benzylamino)-5-phenylpyrrolo [1,2-f][1,2,4]triazin-2-yl)nicotinamido) propanoate] |
| 99% | NC(=O)c1ccc(-c2nc(NCc3ccccn3)c3c(-c4ccccc4)ccn3n2)cc1 [Example 112, 4-(5-phenyl-4-(pyridin-2-ylmethylamino)pyrrolo[1,2-f][1,2,4]triazin-2-yl)benzamide] |
| 88.2% | N#Cc1cc(-c2nc(NCc3ccccc3)c3c(-c4ccccc4)ccn3n2)ccn1 [Example 92, 4-(4-(benzylamino)-5-phenylpyrrolo [1,2-f][1,2,4]triazin-2-yl) picolinonitrile] |
| 97.3% | CC(C)(C)OC(=O)NC1(c2nc(NCc3ccccn3)c3c(-c4ccccc4)ccn3n2)CC1 [Example 34, tert-Butyl 1-(5-phenyl-4-(pyridin-2-ylmethylamino)pyrrolo[1,2-f][1,2,4]triazin-2-yl)cyclopropylcarbamate] |
| 99% | NS(=O)(=O)c1cncc(-c2nc(N3Cc4cccnc4C3)c3c(-c4ccccc4)ccn3n2)c1 [Example 144, 5-(4-(5,7-dihydro-6H-pyrrolo[3,4-b]pyridin-6-yl)-5-phenylpyrrolo [2,1-f][1,2,4]triazin-2-yl)pyridine-3-sulfonamide] |
